Key:
Assay type in all cases: physicochemical
[1] = Hygroscopicity: DVS isotherm at 25° C.; conditions: for hygroscopicity: DVS at 25° C.; for water uptake up to 80% RH: 25° C./80% RH
Protocol: DVS isotherm plot was collected at 25° C. to investigate the solid form stability as a function of humidity. […] For the possible hydrate/solvate di-HCl salt Type A, solids were equilibrated at ambient humidity (~30% RH) before testing. DVS was measured via a SMS (Surface Measurement Systems) DVS Intrinsic. The relative humidity at 25° C. were calibrated against deliquescence point of LiCl, Mg(NO3)2 and KCl. DVS isotherm plot was collected at 25° C. to investigate the solid form stability as a function of humidity for anhydrate Type A (807919-05-A). Solids were pre-dried at 0% RH to remove the unbounded solvent or water before started. […] DVS was measured via a SMS (Surface Measurement Systems) DVS Intrinsic. The relative humidity at 25° C. were calibrated against deliquescence point of LiCl, Mg(NO3)2 and KCl.

[2] = HPLC purity of clear samples after kinetic solubility test; conditions: clear sample after kinetic solubility test, FeSSIF
Protocol: After being centrifuged and separated using 0.45 μm Nylon filter, filtrates were collected for HPLC and pH test, and wet cakes for XRPD characterization. If clear solutions were obtained after 24 hours, accurate concentration and purity were measured for the solutions.

[3] = Polymorph screening of freebase Type A (solid form by XRPD)
[4] = pKa determination on Sirius T3
Protocol: The mixtures of freebase and acid were stirred at RT for 2.5 days. Clear solutions obtained were slurried at 5° C. overnight to induce precipitation. If the samples were still clear, they would be subjected to evaporation to dryness at RT, in order to maximize the chance of identifying as many crystalline hits as possible. Resulted solids were isolated and analyzed by XRPD.
pKa was determined on Sirius T3 TM according to the manufacturer's instructions and the parameters for pKa test was listed in Table 5-13.

CCOCc1nc2c(N)nc3ccccc3c2n1CC(C)(C)O [Freebase Type A, 1-[4-amino-2-(ethoxymethyl)imidazo-[4,5-c]-quinolin-1-yl]-2-methylpropan-2-ol]
hygroscopicity ([1]; listed as Type A): non-hygroscopic
hygroscopicity ([1]; listed as freebase Type A): non-hygroscopic
Water Uptake at 25° C./80% RH ([1]; DVS, 25° C., up to 80% RH): 0.1%
water uptake up to 80% RH ([1]; DVS, listed as Type A): 0.1%
water uptake up to 80% RH ([1]; DVS, listed as freebase Type A): 0.1%
Form Change Post DVS Test ([1]; XRPD after DVS): No
Form Change Post DVS Test ([1]; XRPD pre and post DVS, listed as Type A): no form change
Form Change Post DVS Test ([1]; XRPD pre and post DVS, listed as freebase Type A): no form change
HPLC Purity % of Initial [2]: 99.9%
HPLC Purity Area % [2]: 99.25 Area %
Solid Form ([3]; anti-solvent addition: solvent 1,4-dioxane, anti-solvent Toluene, solids after stirring at 5° C. for 2 days): Type A
Solid Form ([3]; anti-solvent addition: solvent 2-MeTHF, anti-solvent n-heptane): Type A + B
Solid Form ([3]; anti-solvent addition: solvent Acetone, anti-solvent H2O, no solid at 5° C., then evaporation): Type A
Solid Form ([3]; anti-solvent addition: solvent Acetone, anti-solvent MTBE, no solid at 5° C., then evaporation): Type B
Solid Form ([3]; anti-solvent addition: solvent CHCl3, anti-solvent MTBE): Type A
Solid Form ([3]; anti-solvent addition: solvent CHCl3, anti-solvent n-heptane): Type A + B
Solid Form ([3]; anti-solvent addition: solvent DCM, anti-solvent Anisole): Clear
Solid Form ([3]; anti-solvent addition: solvent DCM, anti-solvent Toluene): Type A
Solid Form ([3]; anti-solvent addition: solvent DMAc, anti-solvent H2O): Type A
Solid Form ([3]; anti-solvent addition: solvent DMSO, anti-solvent H2O): Type A
Solid Form ([3]; anti-solvent addition: solvent EtOH, anti-solvent Anisole, no solid at 5° C., then evaporation): Type G
Solid Form ([3]; anti-solvent addition: solvent EtOH, anti-solvent n-heptane): Type A
Solid Form ([3]; anti-solvent addition: solvent Ethyl lactate, anti-solvent n-heptane): Type A + Sample H
Solid Form ([3]; anti-solvent addition: solvent IBA, anti-solvent Toluene, no solid at 5° C., then evaporation): Type B
Solid Form ([3]; anti-solvent addition: solvent IPA, anti-solvent H2O, no solid at 5° C., then evaporation): Clear
Solid Form ([3]; anti-solvent addition: solvent MeOH, anti-solvent H2O): Type A
Solid Form ([3]; anti-solvent addition: solvent MeOH, anti-solvent MTBE, solids after stirring at 5° C. for 2 days): Type A
Solid Form ([3]; anti-solvent addition: solvent NMP, anti-solvent H2O): Type A
Solid Form ([3]; anti-solvent addition: solvent THF, anti-solvent H2O, no solid at 5° C., then evaporation): Type A
Solid Form ([3]; anti-solvent addition: solvent THF, anti-solvent n-heptane): Type A + B
Solid Form ([3]; liquid vapor diffusion, RT 6 days: solvent 2-MeTHF, anti-solvent Toluene): Type A
Solid Form ([3]; liquid vapor diffusion, RT 6 days: solvent Acetone, anti-solvent n-heptane): Type A
Solid Form ([3]; liquid vapor diffusion, RT 6 days: solvent CHCl3, anti-solvent Toluene): Type A + B
Solid Form ([3]; liquid vapor diffusion, RT 6 days: solvent DCM, anti-solvent n-heptane): Type A
Solid Form ([3]; liquid vapor diffusion, RT 6 days: solvent DMAc, anti-solvent MTBE): Type D
Solid Form ([3]; liquid vapor diffusion, RT 6 days: solvent EtOH, anti-solvent H2O): Type A
Solid Form ([3]; liquid vapor diffusion, RT 6 days: solvent Ethyl lactate, anti-solvent MTBE): Clear
Solid Form ([3]; liquid vapor diffusion, RT 6 days: solvent IBA, anti-solvent n-heptane): Clear
Solid Form ([3]; liquid vapor diffusion, RT 6 days: solvent NMP, anti-solvent MTBE): Type E
Solid Form ([3]; liquid vapor diffusion, RT 6 days: solvent THF, anti-solvent H2O): Type B
Solid Form ([3]; polymer induced crystallization: Acetone, Polymer mixture A): Type A
Solid Form ([3]; polymer induced crystallization: Acetone, Polymer mixture B): Type A
Solid Form ([3]; polymer induced crystallization: MeOH, Polymer mixture A): Type A
Solid Form ([3]; polymer induced crystallization: MeOH, Polymer mixture B): Type B
Solid Form ([3]; polymer induced crystallization: THF, Polymer mixture A): Type A
Solid Form ([3]; polymer induced crystallization: THF, Polymer mixture B): Type A
Crystal Form ([3]; screening summary: Anti-solvent Addition, 20 experiments): Type A, B, G, sample H
Crystal Form ([3]; screening summary: Polymer-induced Crystallization, 6 experiments): Type A, B
Crystal Form ([3]; screening summary: Slow Cooling, 10 experiments): Type A, B, F, G
Crystal Form ([3]; screening summary: Slow Evaporation, 10 experiments): Type A, B
Crystal Form ([3]; screening summary: Slurry at RT/50° C., 31 experiments): Type A, C
Crystal Form ([3]; screening summary: Solid Vapor Diffusion, 13 experiments): Type A, C
Crystal Form ([3]; screening summary: Solution Vapor Diffusion, 10 experiments): Type A, B, D, E
Crystal Form ([3]; screening summary: Total, 100 experiments): Type A~G, sample H
Solid Form ([3]; slow cooling, then −20° C.: ACN): Type A
Solid Form ([3]; slow cooling, then −20° C.: Acetone/H2O (1:3)): Type A
Solid Form ([3]; slow cooling, then −20° C.: Anisole, limited solid, then evaporation at RT): Type G
Solid Form ([3]; slow cooling, then −20° C.: CHCl3/MTBE (1:3)): Type B
Solid Form ([3]; slow cooling, then −20° C.: EtOAc): Type A
Solid Form ([3]; slow cooling, then −20° C.: EtOH/n-heptane (1:3)): Type A
Solid Form ([3]; slow cooling, then −20° C.: IPAc): Type A
Solid Form ([3]; slow cooling, then −20° C.: MEK): Type F
Solid Form ([3]; slow cooling, then −20° C.: MIBK): Type A + B
Solid Form ([3]; slow cooling, then −20° C.: THF/toluene (1:3)): Type A + B
Solid Form ([3]; slow evaporation at RT: 2-MeTHF/n-heptane (1:1)): Type B
Solid Form ([3]; slow evaporation at RT: ACN): Type A + B
Solid Form ([3]; slow evaporation at RT: Acetone): Type A
Solid Form ([3]; slow evaporation at RT: CHCl3/n-heptane (1:1)): Type A + B
Solid Form ([3]; slow evaporation at RT: DCM): Type A
Solid Form ([3]; slow evaporation at RT: EtOAc): Type B
Solid Form ([3]; slow evaporation at RT: EtOH/H2O (1:1)): Type A
Solid Form ([3]; slow evaporation at RT: IPA): Type A
Solid Form ([3]; slow evaporation at RT: MeOH): Type A
Solid Form ([3]; slow evaporation at RT: THF): Type A
Solid Form ([3]; slurry at 50° C., about 3 days: 1,4-dioxane): Type C
Solid Form ([3]; slurry at 50° C., about 3 days: 2-MeTHF): Type A
Solid Form ([3]; slurry at 50° C., about 3 days: ACN): Type A
Solid Form ([3]; slurry at 50° C., about 3 days: Anisole): Type A
Solid Form ([3]; slurry at 50° C., about 3 days: CHCl3/toluene (1:5)): Type A
Solid Form ([3]; slurry at 50° C., about 3 days: EtOAc): Type A
Solid Form ([3]; slurry at 50° C., about 3 days: H2O): Type A
Solid Form ([3]; slurry at 50° C., about 3 days: IBA): Type A
Solid Form ([3]; slurry at 50° C., about 3 days: IPA): Type A
Solid Form ([3]; slurry at 50° C., about 3 days: IPAc): Type A
Solid Form ([3]; slurry at 50° C., about 3 days: MEK): Type A
Solid Form ([3]; slurry at 50° C., about 3 days: MIBK): Type A
Solid Form ([3]; slurry at 50° C., about 3 days: MeOH/H2O (1:5)): Type A
Solid Form ([3]; slurry at 50° C., about 3 days: THF/n-heptane (1:5)): Type A
Solid Form ([3]; slurry at RT, 3 days: 1,4-dioxane): Type A
Solid Form ([3]; slurry at RT, 3 days: 2-MeTHF): Type A
Solid Form ([3]; slurry at RT, 3 days: ACN): Type A
Solid Form ([3]; slurry at RT, 3 days: Anisole): Type A
Solid Form ([3]; slurry at RT, 3 days: DCM/toluene (1:3)): Type A
Solid Form ([3]; slurry at RT, 3 days: EtOAc): Type A
Solid Form ([3]; slurry at RT, 3 days: IBA): Type A
Solid Form ([3]; slurry at RT, 3 days: IPA): Type A
Solid Form ([3]; slurry at RT, 3 days: IPAc): Type A
Solid Form ([3]; slurry at RT, 3 days: MEK): Type A
Solid Form ([3]; slurry at RT, 3 days: MIBK): Type A
Solid Form ([3]; slurry at RT, 3 days: MeOH/H2O (1:3)): Type A
Solid Form ([3]; slurry at RT, 3 days: THF/n-heptane (1:3)): Type A
Solid Form ([3]; slurry at RT, 3 days: acetone/H2O (aw = 0.2)): Type A
Solid Form ([3]; slurry at RT, 3 days: acetone/H2O (aw = 0.4)): Type A
Solid Form ([3]; slurry at RT, 3 days: acetone/H2O (aw = 0.6)): Type A
Solid Form ([3]; slurry at RT, 3 days: acetone/H2O (aw = 0.8)): Type A
Solid Form ([3]; solid vapor diffusion, RT 7 days: 1,4-dioxane): Type C
Solid Form ([3]; solid vapor diffusion, RT 7 days: ACN): Type A
Solid Form ([3]; solid vapor diffusion, RT 7 days: Acetone): Type A
Solid Form ([3]; solid vapor diffusion, RT 7 days: CHCl3): Type A
Solid Form ([3]; solid vapor diffusion, RT 7 days: DCM): Type A
Solid Form ([3]; solid vapor diffusion, RT 7 days: DMF): Type A
Solid Form ([3]; solid vapor diffusion, RT 7 days: DMSO): Type A
Solid Form ([3]; solid vapor diffusion, RT 7 days: EtOAc): Type A
Solid Form ([3]; solid vapor diffusion, RT 7 days: EtOH): Type A
Solid Form ([3]; solid vapor diffusion, RT 7 days: H2O): Type A
Solid Form ([3]; solid vapor diffusion, RT 7 days: IPA): Type A
Solid Form ([3]; solid vapor diffusion, RT 7 days: MeOH): Type A
Solid Form ([3]; solid vapor diffusion, RT 7 days: THF): Type A
pKa [4]: 7.2
